# According to patent US8987309B2, “Compounds, pharmaceutical compositions and methods of use of 2-aryl pyridylazoles” (The Translational Genomics Research Institute, priority 2009, dated 2015):
# What was measured:
# H460 = assay: IC50 in tumor cell lines (H460); assay type: cell-based; conditions: lung tumor cell line H460
# Procedure: (§1) Cytotoxicity Assays. Cytotoxicity assays in the mechanism of action studies were performed according to Mosmann (1983), wherein the activity of mitochondrial reductases were measured using 3-(4,5-dimethylthiozol-3-yl)-2,5-diphenyltetrozolium bromide dye. In brief, cells were seeded in 96-well plates and incubated for various times at 37° C. Inhibition of cell growth was measured by adding 3-(4,5-dimethylthiozol-3-yl)-2,5-diphenyltetrozolium bromide dye, and after an additional 4 h of incubation at 37° C., the 96-well plates were centrifuged, and the culture supernatant was removed. DMSO was added to each well to solubilize the formazan crystals, and the optical density was read at 540 nm on a Quant Spectrophotometer (BioTek Instruments, Winooski, Vt.). Cell growth inhibition data are expressed as percentage of survival compared with untreated cells. The IC50 is defined as the drug concentration required to produce 50% growth inhibition. Results are mean S.E.M. (n 3).
# TrkB [1] = target: T1, TrkB (Homo sapiens, UniProt Q16620); assay: Follow-up kinase screening and IC50 (SignalChem), TrkB; assay type: biochemical; set-up: assay run by SignalChem Pharmaceuticals, Inc. (Richmond, BC, Canada)
# T1 sequence (Q16620 32-822): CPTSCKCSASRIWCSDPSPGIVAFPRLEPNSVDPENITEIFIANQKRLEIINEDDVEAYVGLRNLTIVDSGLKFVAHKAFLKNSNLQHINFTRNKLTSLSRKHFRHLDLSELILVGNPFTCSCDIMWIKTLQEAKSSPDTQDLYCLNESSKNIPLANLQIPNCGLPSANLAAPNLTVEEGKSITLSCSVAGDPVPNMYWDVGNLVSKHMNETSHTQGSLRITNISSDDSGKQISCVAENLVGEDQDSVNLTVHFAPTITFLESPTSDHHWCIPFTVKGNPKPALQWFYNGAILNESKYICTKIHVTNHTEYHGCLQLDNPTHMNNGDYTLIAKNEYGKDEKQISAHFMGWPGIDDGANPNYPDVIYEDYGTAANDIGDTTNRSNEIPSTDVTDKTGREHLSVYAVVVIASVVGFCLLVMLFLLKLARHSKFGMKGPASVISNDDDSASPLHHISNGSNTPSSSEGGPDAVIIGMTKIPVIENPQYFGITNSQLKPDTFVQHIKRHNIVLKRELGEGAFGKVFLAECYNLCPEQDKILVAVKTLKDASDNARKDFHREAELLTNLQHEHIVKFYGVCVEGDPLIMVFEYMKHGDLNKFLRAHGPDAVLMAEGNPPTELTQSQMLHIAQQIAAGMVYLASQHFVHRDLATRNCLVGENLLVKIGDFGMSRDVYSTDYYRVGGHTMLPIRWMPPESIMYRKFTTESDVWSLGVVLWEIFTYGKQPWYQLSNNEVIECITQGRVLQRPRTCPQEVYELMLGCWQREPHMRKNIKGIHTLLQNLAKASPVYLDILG
# PC3 = assay: IC50 in tumor cell lines (PC3); assay type: cell-based; conditions: prostate tumor cell line PC3
# Procedure: as §1
# MiaPaCa-2 tumors = assay: Antitumor efficacy and tolerability, MiaPaCa-2 tumors in SCID mice
# Procedure: In Vivo Studies. Six- to 7-week-old male SCID mice were implanted with 10×10^6 MiaPaCa-2 cells in MatriGel (BD Biosciences) subcutaneously in the flank to establish tumors. Once the tumors reached approximately 100 mm^3 and were palpable (approximately 3 weeks later), DPC-046 treatment was initiated. […] Mice were administered vehicle alone or 44, 55, or 66 mg/kg/day DPC-046 intraperitoneally for 5 consecutive days. Tumor size, body weight, and general health of each mouse were recorded every 3rd day for the duration of the study.
# FIG. 15 depicts the antitumor efficacy of (D)PC-046 in SCID mice. 10×10^6 MiaPaCa-2 cells in MatriGel were implanted subcutaneously into the flanks of SCID mice. Mice were randomized on day 6 (arrow) and then injected with vehicle alone or 44 or 55 mg/kg/day (D)PC-046 intraperitoneally daily for 5 consecutive days. Mean tumor burden is shown. Mean±S.D. (n=4 or 5). FIG. 16 depicts the AUC of tumor size versus time of MiaPaCa-2 tumors in SCID mice.
# TrkB [2] = target: T1, TrkB; assay: Initial kinase screening (Amphora), TrkB; assay type: biochemical; set-up: assay run by Amphora Discovery Corporation (Durham, N.C.); conditions: 10 μM compound
# Procedure: (§2) Kinase Screening. Initial kinase screening was performed by Amphora Discovery Corporation (Durham, N.C.).
# BxPC3 DPC-4(−/−) cells [3] = assay: Measurement of cell cycle (PI flow cytometry); assay type: cell-based, Human; conditions: 24 to 72 h
# Procedure: Measurement of Cell Cycle. The percentage of cells in different cell cycle phases of division was measured by flow cytometry (Darzynkiewicz et al., 1996) using propidium iodide (PI) (Sigma-Aldrich). In brief, cells were treated with PC-046 for 24 to 72 h, fixed with 70% ethanol overnight, and then stained with 40 µg/ml PI and 0.5 mg/ml RNase A for 30 min at 37° C. PI fluorescence was measured on a FACScan (BD Biosciences, San Jose, Calif.) and analyzed using Mod-Fit (Verify Software, Topsham, Me.). Data are mean S.E.M. (n 3).
# (§3) Mean±S.E.M., n=3. […] Mean±S.E.M., n=3. […] Mean tumor burden is shown.
# MDA231 = assay: IC50 in tumor cell lines (MDA231); assay type: cell-based; conditions: Table 2; breast tumor cell line MDA231
# Procedure: as §1
# PDGFRα = target: T2, PDGFRα (Homo sapiens, UniProt P16234); assay: Initial kinase screening (Amphora), PDGFRα; assay type: biochemical; conditions: 10 μM compound
# T2 construct: assay run by Amphora Discovery Corporation (Durham, N.C.)
# T2 sequence (P16234 24-1089, species assumed): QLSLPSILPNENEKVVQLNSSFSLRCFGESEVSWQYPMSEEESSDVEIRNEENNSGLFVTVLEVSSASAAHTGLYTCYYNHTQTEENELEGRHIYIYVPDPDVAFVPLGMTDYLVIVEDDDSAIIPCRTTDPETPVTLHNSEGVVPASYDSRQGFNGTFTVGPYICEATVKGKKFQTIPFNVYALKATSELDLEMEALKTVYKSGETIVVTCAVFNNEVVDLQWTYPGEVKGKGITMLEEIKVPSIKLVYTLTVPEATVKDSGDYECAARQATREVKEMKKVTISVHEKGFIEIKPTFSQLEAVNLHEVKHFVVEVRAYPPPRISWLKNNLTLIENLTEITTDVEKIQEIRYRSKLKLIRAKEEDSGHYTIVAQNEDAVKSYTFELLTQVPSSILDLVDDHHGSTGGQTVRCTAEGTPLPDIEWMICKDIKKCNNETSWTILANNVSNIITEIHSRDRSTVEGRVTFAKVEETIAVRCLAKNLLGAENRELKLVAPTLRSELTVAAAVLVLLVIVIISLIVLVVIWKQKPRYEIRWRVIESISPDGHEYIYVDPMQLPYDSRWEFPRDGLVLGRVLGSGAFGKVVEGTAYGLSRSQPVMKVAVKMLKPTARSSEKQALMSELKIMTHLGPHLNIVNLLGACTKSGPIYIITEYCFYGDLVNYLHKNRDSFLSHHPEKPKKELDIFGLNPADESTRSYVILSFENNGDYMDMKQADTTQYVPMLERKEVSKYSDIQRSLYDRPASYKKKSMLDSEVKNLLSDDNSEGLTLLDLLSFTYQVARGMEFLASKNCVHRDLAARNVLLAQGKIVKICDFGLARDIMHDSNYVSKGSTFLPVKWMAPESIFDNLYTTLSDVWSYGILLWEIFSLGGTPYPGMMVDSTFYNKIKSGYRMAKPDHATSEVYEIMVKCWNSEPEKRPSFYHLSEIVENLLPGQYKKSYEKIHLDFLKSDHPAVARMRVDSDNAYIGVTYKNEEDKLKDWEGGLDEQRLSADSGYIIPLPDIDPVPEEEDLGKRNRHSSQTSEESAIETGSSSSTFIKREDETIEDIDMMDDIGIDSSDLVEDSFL
# Procedure: as §2
# [4] = Plasma protein binding (rapid equilibrium dialysis), human plasma; assay type: in vitro ADME; conditions: plasma concentration of 3.27 μM
# Procedure: (§4) Plasma Protein Binding. Plasma protein binding of DPC-046 was determined in human and mouse plasma using rapid equilibrium dialysis (RED) devices manufactured by Thermo Fisher Scientific. Plasma pH was adjusted to 7.4 and spiked with DPC-046 to a final plasma concentration of 1 μg/ml. Aliquots (500 μl) of the spiked plasma were placed into the sample chamber, and 750 μl of phosphate-buffered saline were placed into the adjacent chamber. Triplicate samples were loaded into the RED devices. The RED devices were incubated at 37° C. on an orbital shaker operating at 100 rpm for 24 h. […] After the incubation, aliquots of plasma and buffer were removed for the analysis of DPC-046 concentration by LC-MS-MS as described above.
# IRAK-4 = target: T3, IRAK-4 (Homo sapiens, UniProt Q9NWZ3); assay: Follow-up kinase screening and IC50 (SignalChem), IRAK-4; assay type: biochemical
# T3 construct: assay run by SignalChem Pharmaceuticals, Inc. (Richmond, BC, Canada)
# T3 sequence (Q9NWZ3 whole entry): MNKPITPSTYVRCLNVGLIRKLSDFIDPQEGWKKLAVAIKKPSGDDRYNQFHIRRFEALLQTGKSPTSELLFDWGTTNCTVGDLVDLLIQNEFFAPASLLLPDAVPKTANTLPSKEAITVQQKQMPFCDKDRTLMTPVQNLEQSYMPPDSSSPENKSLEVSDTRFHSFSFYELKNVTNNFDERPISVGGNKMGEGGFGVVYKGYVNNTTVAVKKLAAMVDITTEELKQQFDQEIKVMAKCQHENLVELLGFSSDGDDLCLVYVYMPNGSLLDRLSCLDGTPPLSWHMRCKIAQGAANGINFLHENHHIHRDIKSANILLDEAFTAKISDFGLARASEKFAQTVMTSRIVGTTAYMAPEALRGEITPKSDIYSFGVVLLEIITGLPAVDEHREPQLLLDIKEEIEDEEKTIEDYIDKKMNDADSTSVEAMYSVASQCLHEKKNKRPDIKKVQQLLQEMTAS
# BxPC3 DPC-4(−/−) cells [5] = assay: Measurement of apoptosis and necrosis (Annexin V/PI); assay type: cell-based, Human; conditions: 24 to 72 h, highest concentration 1500 nM
# Procedure: Measurement of Apoptosis and Necrosis. Apoptosis and necrosis after DPC-046 treatment was measured at 24 to 72 h by flow cytometry (Vermes et al., 1995) using Annexin V-Alexa Fluor 488 (Invitrogen) and propidium iodide (BioVision, Mountain View, Calif.). Because of the greater photostability of Alexa Fluor 488 over fluorescein isothiocyanate, we substituted Alexa Fluor 488-labeled Annexin V for fluorescein isothiocyanate-labeled Annexin V. Apoptosis was measured by positive Annexin V staining, indicating the translocation of phosphatidylserine on the cell membrane of apoptotic cells, whereas necrosis was measured by dual labeling of Annexin V and propidium iodide of necrotic cells. Unstained cells were deemed alive. Fluorescence of Annexin V-Alexa Fluor 488 and PI was measured on FL1 and FL2, respectively, on a BD Biosciences FACScan using CellQuest Pro software (BD Biosciences). Data are mean S.E.M. (n 3).
# as §3
# [6] = Plasma protein binding (rapid equilibrium dialysis), mouse plasma; assay type: in vitro ADME; conditions: plasma concentration of 3.27 μM
# Procedure: as §4
# [7] = 25 μM DPC-046, follow-up screen
# [8] = highest concentration tested (50 μM)
# [9] = 66 mg/kg/day i.p., 5 consecutive days, initial dose-ranging study
compound,measurement,setting,value
COc1ccc(-c2cnc(-c3ccncc3-c3cccc(OC)c3)o2)cc1 [DPC046],IC50,H460; Table 1,25 nM
same,IC50,H460; Table 2,25 nM
same,inhibition of TrkB,TrkB [1]; [7],more than 70%
same,inhibition of TrkB,TrkB [1]; [8],98%
same,IC50,PC3; Table 1,6.5 nM
same,IC50,PC3; Table 2,6.5 nM
same,antitumor efficacy (in words),MiaPaCa-2 tumors; 44 mg/kg/day daily for 5 days,not effective
same,average loss of body weight,"MiaPaCa-2 tumors; 55 mg/kg/day group, while receiving injections, recovered by end of study",15.8%
same,area under the tumor size X time curve vs controls (in words),"MiaPaCa-2 tumors; 55 mg/kg/day group, p=0.014",statistically significant reduction
same,weight loss,"MiaPaCa-2 tumors; 55 mg/kg/day, daily for 5 days, initial study",10%
same,MiaPaCa-2 tumor growth vs untreated controls (in words),"MiaPaCa-2 tumors; 55 mg/kg/day, daily for 5 days, preliminary data not shown",reduced MiaPaCa-2 tumor growth
same,tolerability (in words),"MiaPaCa-2 tumors; 66 mg/kg/day i.p., 5 consecutive days",not tolerated
same,death,MiaPaCa-2 tumors; [9],60%
same,weight loss,MiaPaCa-2 tumors; [9],−15%
same,MiaPaCa-2 tumor growth vs untreated group (in words),MiaPaCa-2 tumors; experiment comparing 44 or 55 mg/kg/day daily for 5 days,significant inhibition of MiaPaCa-2 tumor growth
same,inhibition of TrkB,TrkB [2],55%
same,effect on cell cycle phases (in words),BxPC3 DPC-4(−/−) cells [3]; listed as (D)PC-046,block in the S and G2/M-phases
same,effect on cell cycle phases (in words),BxPC3 DPC-4(−/−) cells [3]; listed as DPC-046,reduction in the percentage of G0/G1-phase cells and a commensurate increase in G2/M-phase cells
same,IC50,MDA231,17 nM
same,inhibition of PDGFRα,PDGFRα,46%
same,bound to plasma proteins,[4],85%
same,inhibition of IRAK-4,IRAK-4; [7],more than 70%
same,inhibition of IRAK-4,IRAK-4; [8],92%
same,mechanism of cell death (in words),BxPC3 DPC-4(−/−) cells [5]; listed as (D)PC-046,both early apoptotic and necrotic cell death
same,mechanism of cell death (in words),BxPC3 DPC-4(−/−) cells [5]; listed as DPC-046,cell death by a combination of apoptosis and necrosis
same,bound to plasma proteins,[6],91%
